Laboratory results as given in US6716829B2, “Aldosterone antagonist and cyclooxygenase-2 inhibitor combination therapy to prevent or treat inflammation-related cardiovascular disorders” (Pharmacia Corporation, priority 2000, dated 2004).
Several values for one entry are separate records, joined by “and”; a condition that tells them apart may be missing. Equal values may be shown once. Entries after “also recorded” stand apart in the source; their conditions may differ.

Tests used:
[1] = tested on: angiotensin II infused rats; assay: Assay A, angiotensin II infusion model: systolic blood pressure by tail-cuff; assay type: in vivo, Male Wistar rats; details: angiotensin II 25 ng/min sc, 1% NaCl; eplerenone 100 mpk; aldosterone in adrenalectomized rats; 4 weeks
Method: Human cardiovascular disorders are complex conditions, often initiated by vascular hypertension or a myocardial infarction (MI). In order to determine the probable effectiveness of a therapy for cardiovascular disorders, it is important to determine the potency of components in several assays. Accordingly, in Assay “A”, the efficacy of the aldosterone antagonist epeplerenone (epoxymexrenone) was determined in a hypertensive rat model with vascular inflammation, using angiotensin II infusion. In Assay “B” a study is described evaluating the efficacy of the aldosterone antagonist epeplerenone (epoxymexrenone) in a rat model using aldosterone infusion to produce hypertension with vascular inflammation. In Assay “C” a further study is described evaluating the efficacy of the aldosterone antagonist epeplerenone (epoxymexrenone) in a rat model using aldosterone infusion to produce hypertension with vascular inflammation.
Assay A: In Vivo Angiotensin II Infusion Model
Male Wistar rats (n=50, 10/group; BW=200 g)
SBP measured by tail-cuff every week

[2] = tested on: aldosterone-infused, saline-drinking, uni-nephrectomized rats; assay: Assay B: heart histology (hematoxylin&eosin), vascular inflammatory lesions and myocardial injury; assay type: in vivo, Male Sprague Dawley rats; details: eplerenone 100 mpk p.o., 0.6% KCl group, 4 weeks
Method: Assay B: In Vivo Aldosterone Infusion Model Male Sprague Dawley rats (n=39; BW=250 g) […] Uni-nephrectomy performed during implantation of mini-pumps 2. Aldosterone ([…], sc via alzet minipump) 2. […] 1. […] Sacrifice after 4 weeks. Hearts were harvested and divided by half through a transverse section at the mid-ventricles: The upper half was stored into formalin. The bottom part was snap-frozen in liquid nitrogen for biochemical analysis. Hearts were stained with hematoxylin&eosin and the collagen specific dye picro-sirius red and were analyzed for determination of interstitial collagen volume fraction and morphologic abnormalities (i.e. necrosis, vascular injury).

cyclooxygenase-2 (COX-2) = assay: Assay C: COX-2 mRNA in heart by TaqMan RT-PCR; assay type: in vivo, Male Sprague-Dawley rats; details: for COX-2 (AU): mRNA; for COX-2 mRNA expression: myocardium, aldosterone + salt, 7, 14, 30 days, eplerenone 100 mg/kg/day
Method: The procedure of Assay B was expanded upon in a further study. […] Myocardial tissue from animals in each treatment group was examined after 7, 14, or 30 days of treatment.
Potassium chloride supplementation was added to the saline solution in order to prevent the potential hypokalemia associated with aldosterone excess.
At the time of the surgery, an Alzet 2002 osmotic minipump (Alza Corp., Palo Alto, Calif.) containing either vehicle (9% ethanol/87% propylene glycol/4% dH2O) or 1.0 mg/mL d-aldosterone (Sigma Chemical, St. Louis, Mo.) was inserted subcutaneously at the nape of the neck. Aldosterone was administered at a dose of 0.75 µg/hour. […] Animals were sacrificed from each group (n=8-13) after 7, 14, or 30 days of treatment.
The fluorogenic 5′-nuclease assay (TaqMan PCR) using Applied Biosystems' 7700 Sequence Detection System (Applied Biosystems, Foster City, Calif.) allowed for real time detection/quantitation of a specific gene by monitoring the increase in fluorescence of a gene-specific, dye-labeled oligonucleotide probe. Probes for target and reference genes were labeled at the 5′-end with a 6-carboxyfluorescein (6FAM) reporter dye and at the 3′-end with a 6-carboxy-N,N,N′,N′-tetramethylrhodamine (TAMRA) quencher dye. When the probe was annealed to the target gene, fluorescence of 6FAM was prevented by the close proximity of TAMRA. The exonuclease activity of Taq polymerase released the dyes from the oligonucleotide probe by displacing the probe from the target sequence resulting in fluorescence excitation in direct proportion to the amount of target message present. Data analysis was performed using the Sequence Detection System software from Applied Biosystems.
All primers and probes were designed using Primer Express software supplied with the 7700 Sequence Detection System and synthesized by Applied Biosystems. Standard curves using 5-fold dilutions of total RNA (from 200 ng to 320 pg) were performed to determine the efficiency of each primer/probe set in the TaqMan reaction prior to the analysis of the experimental samples. Primer/probe sets were designed from known sequences of rat genes to be analyzed. All target gene values were normalized to a reference gene, constitutively expressed cyclophilin. Primer/probe set sequences can be found in Table 8.
RNA was extracted from frozen (−80° C.) rat heart tissue using the Totally RNA Isolation Kit (Ambion, Inc., Austin, Tex.). Tissue was crushed using a stainless steel mortar and pestle, which had been chilled to −80° C. and transferred to a dounce homogenizer (Kontes, Vineland, N.J.) containing 3-10 mL cold denaturation buffer. Tissue was homogenized and transferred to a sterile, 15 mL polypropylene centrifuge tube. An equal volume of phenol:chloroform:isoamyl alcohol (25:24:1) was added, samples were shaken vigorously for 1 min, and incubated on ice for at least 15 min. Samples were centrifuged for 30 min at 10,000g. The aqueous phase was removed, 1/10 volume of a sodium acetate solution (3.0 M NaOAc pH 4.5) was added, samples were shaken or inverted for 10 seconds, and acid-phenol (premixed with isoamyl alcohol):chloroform (5:1, Ambion, Inc.) was added at an volume equivalent to the starting sample volume. Samples were shaken vigorously for 1 min, followed by a 15-min incubation on ice, and centrifuged for 30 min at 10,000 g. The aqueous phase removed and placed in a clean polypropylene tube. An equal volume of isopropanol (Sigma, St. Louis, Mo.) was added and the samples were mixed and incubated overnight at −20° C. The samples were centrifuged for 30 min at 10,000 g, the supernatant was removed and the RNA pellet was resuspended in DNAse/RNAse-free water. Samples were frozen at −80° C. for at least 2 hours, thawed on wet ice, and diluted for quantitation.

[3] = group mean, data used for Table 17 (7-day protocol)
[4] = group mean, data used for Table 18 (14-day protocol)
[5] = group mean, data used for Table 19 (30-day protocol)

Compound | Systolic Blood Pressure [1] | Vascular inflammatory changes / myocardial injury [2] | COX-2 (AU) (cyclooxygenase-2 (COX-2); [3]) | COX-2 (AU) (cyclooxygenase-2 (COX-2); [4]) | COX-2 (AU) (cyclooxygenase-2 (COX-2); [5]) | COX-2 (AU) (cyclooxygenase-2 (COX-2); individual rats, data used for Table 17 (7-day protocol), incl. rat marked * excluded from statistics, listed as Aldosterone + salt) | COX-2 (AU) (cyclooxygenase-2 (COX-2); individual rats, data used for Table 18 (14-day protocol), incl. rat marked * excluded from statistics, listed as Aldosterone + salt) | COX-2 (AU) (cyclooxygenase-2 (COX-2); individual rats, data used for Table 19 (30-day protocol), incl. rat marked * excluded from statistics, listed as Aldosterone + salt) | COX-2 mRNA expression (cyclooxygenase-2 (COX-2)) | COX-2 (AU) (cyclooxygenase-2 (COX-2); individual rats, data used for Table 17 (7-day protocol), incl. rat marked * excluded from statistics, listed as Eplerenone + aldosterone + salt) | COX-2 (AU) (cyclooxygenase-2 (COX-2); individual rats, data used for Table 18 (14-day protocol), incl. rat marked * excluded from statistics, listed as Eplerenone + aldosterone + salt) | COX-2 (AU) (cyclooxygenase-2 (COX-2); individual rats, data used for Table 19 (30-day protocol), incl. rat marked * excluded from statistics, listed as Eplerenone + aldosterone + salt)
C[C@]12CCC(=O)C=C1CC[C@@H]1[C@@H]2[C@@H](O)C[C@]2(C=O)[C@@H](C(=O)CO)CC[C@@H]12 [Aldosterone] | increased blood pressure | severe vascular inflammatory lesions | 2.22 AU | 4.34 AU | 4.53 AU | 2.10 AU and 0.70 AU and 2.01 AU and 2.95 AU and 2.05 AU and 1.94 AU and 3.54 AU and 2.45 AU and 0.82 AU | 7.39 AU and 1.83 AU and 5.80 AU and 2.59 AU and 6.63 AU and 4.18 AU and 3.71 AU and 2.62 AU and 23.34 AU | 4.26 AU and 4.81 AU and 1.54 AU and 3.10 AU and 5.28 AU and 8.20 AU | significantly increased | – | – | –
COC(=O)[C@@H]1CC2=CC(=O)CC[C@]2(C)[C@@]23O[C@@H]2C[C@@]2(C)[C@@H](CC[C@@]24CCC(=O)O4)[C@H]13 [Eplerenone] | Neither eplerenone nor adrenalectomy reduced blood pressure | prevention; also recorded: completely prevented | 1.25 AU | 2.02 AU | 2.28 AU | – | – | – | inhibition; also recorded: significantly reduced | 1.19 AU and 2.85 AU and 0.60 AU (2×) and 1.16 AU and 0.82 AU and 1.86 AU and 0.91 AU | 1.56 AU and 1.04 AU and 0.70 AU and 1.41 AU and 3.78 AU and 1.86 AU and 6.19 AU and 1.87 AU and 0.99 AU and 1.92 AU and 0.86 AU | 2.44 AU and 0.55 AU and 1.97 AU and 3.41 AU and 3.71 AU and 3.04 AU and 2.11 AU and 1.34 AU and 1.92 AU and 12.21 AU
